{"source": "patent US11213536B2", "about": "“Acylated compounds for the treatment of ocular pathologies” (CONSEJO SUPERIOR DE INVESTIGACIONES CIENTÍFICAS, priority 2016, dated 2022)", "key": {"rd10 mouse": {"test_system": "rd10 mouse", "experiment": "rd10 mice retinal degeneration model, subretinal injection", "format": "in vivo", "conditions": "5 mM subretinal", "excerpt": "The rd10 mouse is a model of retinitis pigmentosa due to a mutation in the Pde6b gene that results in the degeneration of the photoreceptors that begins on postnatal day 15-16 (P15-16) and is completed within one month (P30). In this model, the degeneration begins in the rods and then continues with cones and finally the retinal pigment epithelium (RPE). The degeneration in this model occurs as a consequence of the loss of the function of Pde6b, which ultimately leads to a continuous entry of Ca^++ in the […] with a significant production of reactive oxygen species (ROS), infiltration of macrophages, and activation of pro-apoptotic proteins. At the histological level, a loss of nuclei is observed in the outer nuclear layer of the retina (the layer in which photoreceptor nuclei are located), as well as the loss of the specific markers of rods (rhodopsin) and cones (opsin). The electroretinogram (ERG), which measures the electrical response of the retina to visual stimuli, is markedly affected in rd10 mice, with progressive loss of the amplitude of the a- and b-waves of the ERG. […] To evaluate the protective effect of our compounds on the retina, we first used the rd10 model. Rd10 homozygous mice were injected in the subretinal space at P13 (two to three days before the onset of degeneration) with 1 μl of vehicle (5% DMSO in PBS) or resveratrol RES (5 mM), as well as compound 2 (5 mM). Then, 15 days after having been injected, fundus, ERG, and histological changes were evaluated in the untreated mice, those treated with the vehicle, and those treated with RES and compound 2. […] The ERG in the treated mice was also evaluated 15 days after the injections. The amplitude of the a- and b-waves in the ERGs were quantified, and the statistical analysis was performed using two-way ANOVA and post hoc DMS. A value of p<0.05 was considered significant. […] Finally, the immunofluorescence study was performed in order to observe the presence of markers of rods (rhodopsin) and cones (opsin) (FIG. 10). The number of photoreceptor nuclei present in the outer nuclear layer (ONL), as well as the immunostaining of rhodopsin, was much greater in rd10 mice treated with compound 2 than in those treated with RES and in the controls."}, "[1]": {"test_system": "SH-SY5Y neuroblastoma cell line", "experiment": "Neuroprotection assay: SH-SY5Y viability (MTT) after H2O2 damage", "format": "cell-based", "conditions": "H2O2 100 μM, RES 10 μM, MTT 24 h", "procedure": "The SH-SY5Y neuroblastoma cell line was cultured in petri dishes pre-treated with collagen (100 μg/ml) with F12 medium supplemented with penicillin/streptomycin and 10% inactivated fetal bovine serum.\n(§1) Cell viability assays with neurons were prepared in 96-well plates pre-treated with collagen by seeding 20,000 cells/well in a volume of 100 μl and incubating the cells for 24 h before the addition of the compounds. The compounds to be tested were dissolved in DMSO and added in three different concentrations (1, 10 and 100 μM) in order to determine their toxicity. The final percentage of DMSO in each well was adjusted to 1%. The cell viability was evaluated 24 h after the addition of the compounds by means of the MTT assay according to the manufacturer's method. Mean values and standard deviations were calculated from at least 8 different measurements from several independent experiments.\nNeuroprotection assays. […] The cell viability was evaluated 24 h after the addition of the compounds by means of the MTT assay according to the manufacturer's method. Mean values and standard deviations were calculated from at least 8 different measurements from several independent experiments. Neuronal recovery was calculated by normalizing the results of the neuronal viability experiments after the addition of our compounds and H2O2 to the positive control of each experiment (neurons+H2O2)."}, "RAW 264.7 macrophages": {"test_system": "RAW 264.7 macrophages", "experiment": "Mitigation of LPS damage: RAW 264.7 macrophage viability (MTT)", "format": "cell-based", "conditions": "LPS 100 ng/ml, RES 10 μM, MTT 24 h", "procedure": "RAW 264.7 macrophages were cultured in P75 with high-glucose DMEm supplemented with penicillin/streptomycin and 10% inactivated fetal bovine serum.\nas §1, with “The cell viability” for “Cell viability”, “with RAW macrophages” for “with neurons”, “plates” for “plates pre-treated with collagen”, “seeding 25,000” for “seeding 20,000”, “for 4” for “for 24”\nTesting of mitigation of damage caused by the addition of LPS. The RAW 264.7 macrophages were cultured according to the procedure described above. […] The cell viability was evaluated 24 h after the addition of the compounds by means of the MTT assay according to the manufacturer's method. Mean values and standard deviations were calculated from at least 8 different measurements from several independent experiments."}}, "note": "Entries after “also recorded” stand apart in the source; their conditions may differ."}
{"smiles": "CCCCCCCC(=O)OCC1OC(Oc2cc(O)cc(/C=C/c3ccc(O)cc3)c2)C(O)C(O)C1O", "note": "[Compound 2, trans-resveratrol-3-O-(6′-O-octanoyl)-β-D-glucopyranoside]", "values": [{"measurement": "amplitude of the a- and b-waves in ERG", "setting": "rd10 mouse; 15 days", "result": "preserved in the group treated with compound 2 in a greater proportion"}, {"measurement": "thickness of the outer nuclear layer (ONL)", "setting": "rd10 mouse; 15 days", "result": "greater than in the group treated with RES"}, {"measurement": "pigment accumulation in the fundus", "setting": "rd10 mouse; 15 days after injection", "result": "absence of pigment; also recorded: lower amount of pigment accumulation"}, {"measurement": "b-wave amplitude in dark-adapted ERG", "setting": "rd10 mouse; 15 days, flash intensities 0.2, 1, 3 and 10 cd s/m^2", "result": "significantly increased; also recorded: significant increase"}, {"measurement": "labeling of rhodopsin and opsin", "setting": "rd10 mouse; 15 days, immunofluorescence", "result": "more intense"}, {"measurement": "number of photoreceptor nuclei in the outer nuclear layer (ONL) and immunostaining of rhodopsin", "setting": "rd10 mouse; 15 days, immunofluorescence", "result": "much greater"}]}
{"smiles": "Oc1ccc(C=Cc2cc(O)cc(O)c2)cc1", "note": "[RES, resveratrol, reference compound]", "values": [{"measurement": "recovery of cell viability", "setting": "[1]", "result": "up to 50%"}, {"measurement": "recovery of cell viability", "setting": "RAW 264.7 macrophages", "result": "up to 82%"}]}
